“And” between values parts separate entries of the source, which are not always exact repeats. Equal entries are not always repeated.
Key:
Type in all cases: in vivo, BALB/c mice
[1] = tested on: OVA-sensitized asthmatic mice; assay: Airway hyperresponsiveness (AHR) test, Buxco system, Penh after methacholine aerosol
Method: (§1) Mice in different groups were fed with a Poria extract or pure lanostane compound during the experimental period, and each mouse was subjected to an airway hyperresponsiveness test after one-month feeding, from which an important index reflecting the severe degree of the asthma of the mouse was determined. […] Further, a chemoattractant factor, Eotaxin, was an important observation factor in this example for observing whether the secretion of cytokines changed dramatically.
(§2) • (1) Experimental animal: Inbred BALB/c female mice were maintained by standard laboratory chow ad libitum. Room temperature was maintained at 19-24°C and relative humidity at 50-70%. […] Three minutes after the introduction an average value of AHR per minute was recorded. […] The value of Penh (pause of enhance) was calculated by collecting data derived from transducer (differential pressure transducer; Buxco) and preamplifier (MAX □, Buxco) in the system. The relative increase ratio of Penh was calculated as Penh% = Penhmethacholine/PenhPBS, wherein Penhmethacholine is the average value of Penh after the mice inhale 3 minutes of methacholine aerosol, and PenhPBS is the average value of Penh after the mice inhale 3 minutes of PBS aerosol. • (5) Bronchoalveolar lavage fluid (BALF) and lung histology: As all groups of mice had finished of AHR analysis, they were sacrificed on next day. […]

[2] = tested on: immune cells in BALF of OVA-sensitized mice; assay: Percentage of subpopulations of immune cells in bronchoalveolar lavage fluid (BALF), Liu's stain cell count; conditions: % of total BALF cells, mean ± SD
Method: as §1
• (1) Experimental animal: Inbred BALB/c female mice were maintained by standard laboratory chow ad libitum. Room temperature was maintained at 19-24°C and relative humidity at 50-70%. Animal experiments were performed according to the Guidelines for the Care and Use of Laboratory Animals, Fu-Jen University, Taiwan. […] All mice were exposed to inhalate exposure to 8 ml of 2% OVA aerosols for a period of 20 minutes by placing them in a chamber using an ultrasonic nebulizer (DeVilbiss Pulmo-Aide, 5650D, USA), after receiving the second intraperitoneal injection. • (3) Grouping of the experimental animal: The 10 groups of OVA-sensitized asthmatic mice were separated into a non-treatment asthma group (As); treatment groups with the Poria extract prepared in Example 2 and pure compounds K1, K2 and K3 (1PCE, 1K1, 1K2, 1K3, 2PCE, 2K1, 2K2, and 2K3); and the control drug group (Pred). Each mouse in the treatment group of 1PCE group received daily 0.0372 mg of the ethanol extract PCE prepared in Example 2 (1PCE). 2PCE means mice were fed with two times of the dosage of PCE (0.0744 mg) of the 1PCE group. Each mouse in the treatment groups of 1K1, 1K2 and 1K3 received daily 0.0087 mg of K1, K2 and K3, respectively. 2K1, 2K2, and 2K3 mean mice werer fed with two times of the dosage of K1, K2 and K3 (0.0174 mg) in comparison with the 1K1, 1K2 and 1 K3 groups. Each mouse of the Pred group had been administrated with 0.1 mg of Prednisolone per day for 5 continuous days before the mouse was sacrificed. Above PCE, K1, K2, K3 and Prednisolone compounds were dissolved by 95% ethanol firstly, and finally in Phosphate Buffer Solution (PBS). Each mouse was administered 0.4 mL of total volume each time by gavage. • (4) Airway hyperresponsiveness test: An airway hyperresponsiveness (AHR) value increases proportionally with the severe degree of asthma, and thus a decrease of AHR value is an important index for determining whether asthma is being released. Each mouse in all groups was subjected to the AHR test next day following the 29th day of administering in the treatment groups on which the last inhalate exposure was conducted. The AHR was tested with Buxco system (Biosystem XA; Buxco Electronics Inc. Sharon, CT, USA), wherein the mouse was placed in a chamber, and aerosol of PBS or methacholine of different concentrations (25 mg/ml, and 50 mg/ml) was introduced into the chamber by using an ultrasonic nebulizer. Three minutes after the introduction an average value of AHR per minute was recorded. […] The value of Penh (pause of enhance) was calculated by collecting data derived from transducer (differential pressure transducer; Buxco) and preamplifier (MAX □, Buxco) in the system. The relative increase ratio of Penh was calculated as Penh% = Penhmethacholine/PenhPBS, wherein Penhmethacholine is the average value of Penh after the mice inhale 3 minutes of methacholine aerosol, and PenhPBS is the average value of Penh after the mice inhale 3 minutes of PBS aerosol. • (5) Bronchoalveolar lavage fluid (BALF) and lung histology: As all groups of mice had finished of AHR analysis, they were sacrificed on next day. The lung was immediately lavaged via the trachea cannula (18 GA, angiocath, B.D.) with 1 ml of Hank's balanced salt solution (HBSS, SH30016.01, Hyclone, USA), which contained 2% fetal bovine serum (FBS) and 2 mM 2Na-EDTA for three times. About 3 ml of BALF were collected.

[3] = tested on: Eotaxin; assay: Eotaxin level in BALF by Sandwich-ELISA; conditions: mean ± SD
Method: as §1, §2

[4] = groups 1K1, 1K2, 1K3: 0.0087 mg per mouse daily by gavage
[5] = groups 2K1, 2K2, 2K3: 0.0174 mg per mouse daily by gavage
[6] = Pred group: 0.1 mg Prednisolone per day for 5 continuous days before sacrifice

| Structure (SMILES) | values of AHR in comparison with the As group ([1]; groups 1K1, 1K3: 0.0087 mg per mouse daily by gavage, methacholine 50mg/mL) | Eosinophil [2, 4] | Lymphocyte [2, 4] | Monocyte [2, 4] | Neutrophil [2, 4] | Eosinophil [2, 5] | Lymphocyte [2, 5] | Monocyte [2, 5] | Neutrophil [2, 5] | Eotaxin [3, 4] | Eotaxin [3, 5] | values of AHR in comparison with the As group [1, 6] | Monocyte [2, 6] | Neutrophil [2, 6] |
| --- | --- | --- | --- | --- | --- | --- | --- | --- | --- | --- | --- | --- | --- | --- |
| C=C(CC[C@@H](C(=O)O)[C@H]1[C@H](O)C[C@@]2(C)C3=CC[C@H]4C(C)(C)C(=O)CC[C@]4(C)C3=CC[C@]12C)C(C)C [K3] | significantly lower values ofAHR | 11.3±7.0% | 49.8±12.8% | 38.2±8.7% | 0.8±0.9% | 9.7±3.6% | 52.1±8.1% | 37.1±5.7% | 1.1±1.1% | significantly lower levels of Eotaxin and 21.1±10.4 pg/mL | 25.1 ± 12.0 pg/mL |  |  |  |
| C[C@]12C=CC(=O)C=C1CC[C@@H]1[C@@H]2[C@@H](O)C[C@@]2(C)[C@H]1CC[C@]2(O)C(=O)CO [Pred, Prednisolone, reference compound] |  |  |  |  |  |  |  |  |  |  |  | lower values of AHR but not statistically significant | 13.3±7.8% | 0.8±0.8% |
